Experimental data as given in patent US20250345276A1, “O/W-EMULSIONS COMPRISING SEMIFLUORINATED ALKANES” (NOVALIQ GMBH, priority 2011, published 2025).

Columns and labels:
[1] = system: Candida albicans (ATCC 10231); experiment: antimicrobial preservative effectiveness test in analogy to USP 32 <51>; type: cell-based; conditions: C. albicans; for cfu/mL 0 h: 0 h after inoculation; for cfu/mL 0 h / cfu/mL 24 h / cfu/mL 48 h: approx. 22.5° C.
Description: (§1) An antimicrobial preservative effectiveness test in analogy to that of USP 32 <51>was carried out. Sample vials prepared according to Examples 1, 3 and 4 were inoculated with Escherichia coli, Pseudomonas aeruginosa, Staphylococcus aureus, Candida albicans and Aspergillus niger and incubated at approx. 22.5° C. Commercially obtained samples of Disoprivan® were tested as comparators.
(§2) To determine whether the observed inhibition of microbial growth in the emulsions of the invention is an effect of the semifluorinated alkanes or the propofol, the test was repeated with a placebo emulsion containing no propofol, but only F6H8 in a higher concentration (40 wt.-%) and S75 in dextrose solution. Also tested were pure solutions of F6H8 and F4H5.

[2] = system: Pseudomonas aeruginosa (ATCC 9027); experiment: as above; type: cell-based; conditions: P. aeruginosa; for cfu/mL 0 h: 0 h after inoculation; for cfu/mL 0 h / cfu/mL 24 h / cfu/mL 48 h: approx. 22.5° C.
Description: as §1, §2

[3] = system: Staphylococcus aureus (ATCC 6538); experiment: as above; type: cell-based; conditions: S. aureus; for cfu/mL 0 h: 0 h after inoculation; for cfu/mL 0 h / cfu/mL 24 h / cfu/mL 48 h: approx. 22.5° C.
Description: as §1, §2

[4] = system: Aspergillus niger (ATCC 16404); experiment: as above; type: cell-based; conditions: A. niger; for cfu/mL 0 h: 0 h after inoculation; for cfu/mL 0 h / cfu/mL 24 h / cfu/mL 48 h: approx. 22.5° C.
Description: as §1, with “comparators. […]” for “comparators.”

[5] = system: Escherichia coli (ATCC 8739); experiment: as above; type: cell-based; conditions: E. coli; for cfu/mL 0 h: 0 h after inoculation; for cfu/mL 0 h / cfu/mL 24 h / cfu/mL 48 h: approx. 22.5° C.
Description: as §1, with “comparators. […]” for “comparators.”

[6] = miscibility of propofol with semifluorinated alkanes; type: physicochemical; conditions: over a wide temperature range
Description: By virtue of the high solubility of propofol in semifluorinated alkanes, it is now possible to provide injectable propofol formulations having a high strength (or concentration of propofol), and thus require only a low volume of administration. This will also bring about an improved tolerability, since a lower administration volume inherently means a lower intake of excipients (such as emulsifiers).

[7] = hydroxyl group; cited from earlier work

| SMILES | cfu/mL 0 h [1] | Change in log steps 24 h [1] | cfu/mL 24 h [1] | Change in log steps 48 h [1] | cfu/mL 48 h [1] | cfu/mL 0 h [2] | Change in log steps 24 h [2] | cfu/mL 24 h [2] | Change in log steps 48 h [2] | cfu/mL 48 h [2] | cfu/mL 0 h [3] | Change in log steps 24 h [3] | cfu/mL 24 h [3] | Change in log steps 48 h [3] | cfu/mL 48 h [3] | cfu/mL 0 h [4] | Change in log steps 24 h [4] | cfu/mL 24 h [4] | Change in log steps 48 h [4] | miscibility of propofol with the semifluorinated alkane [6] | other results |
| --- | --- | --- | --- | --- | --- | --- | --- | --- | --- | --- | --- | --- | --- | --- | --- | --- | --- | --- | --- | --- | --- |
| CCCCCCCCC(F)(F)C(F)(F)C(F)(F)C(F)(F)C(F)(F)C(F)(F)F [Example F6H8] | 1 500 cfu/mL | ≤-1.2 log steps | <100 cfu/mL | ≤-1.1 log steps | <100 cfu/mL | 1 600 cfu/mL | ≤-1.2 log steps | <100 cfu/mL | ≤-1.2 log steps | <100 cfu/mL | 2 900 cfu/mL | ≤-1.4 log steps | <100 cfu/mL | ≤-1.4 log steps | <100 cfu/mL | 1 500 cfu/mL | ≤-1.2 log steps | <100 cfu/mL | ≤-1.2 log steps | fully miscible | cfu/mL 48 h [4]: <100 cfu/mL; Change in log steps 6 d [4]: ≤-1.2 log steps; cfu/mL 6 d [4]: <100 cfu/mL; cfu/mL 0 h [5]: 1 600 cfu/mL; Change in log steps 24 h [5]: ≤-1.2 log steps; cfu/mL 24 h [5]: <100 cfu/mL; Change in log steps 48 h [5]: ≤-1.2 log steps; cfu/mL 48 h [5]: <100 cfu/mL |
| CCCCCCC(F)(F)C(F)(F)C(F)(F)C(F)(F)F [Example F4H6] |  |  |  |  |  |  |  |  |  |  |  |  |  |  |  |  |  |  |  | fully miscible |  |
| CCCCCC(F)(F)C(F)(F)C(F)(F)C(F)(F)F [Example F4H5] | 1 500 cfu/mL | ≤-1.2 log steps | <100 cfu/mL | ≤-1.1 log steps | <100 cfu/mL | 1 600 cfu/mL | ≤-1.2 log steps | <100 cfu/mL | ≤-1.2 log steps | <100 cfu/mL | 2 900 cfu/mL | ≤-1.4 log steps | <100 cfu/mL | ≤-1.4 log steps | <100 cfu/mL | 3 000 cfu/mL | ≤-1.4 log steps | <100 cfu/mL | ≤-1.2 log steps | fully miscible | cfu/mL 48 h [4]: <100 cfu/mL; Change in log steps 6 d [4]: ≤-1.2 log steps; cfu/mL 6 d [4]: <100 cfu/mL; cfu/mL 0 h [5]: 1 600 cfu/mL; Change in log steps 24 h [5]: ≤-1.2 log steps; cfu/mL 24 h [5]: <100 cfu/mL; Change in log steps 48 h [5]: ≤-1.2 log steps; cfu/mL 48 h [5]: <100 cfu/mL |
| CC(C)c1cccc(C(C)C)c1O [propofol, 2,6-diisopropylphenol] |  |  |  |  |  |  |  |  |  |  |  |  |  |  |  |  |  |  |  |  | pKa [7]: 11 |
